# Test results as given in patent US4032654A, “Water-soluble, liquid concentrates of S-methyl-[(methyl-carbamoyl)oxy]-thioacetimidate and methyl N', N'-dimethyl-N-[(methyl-carbamoyl)oxy]-1-thiooxamimidate” (priority 1975, dated 1977).
# Read-outs that look alike come from different tables or passages of the source.
# Key:
# [1] = 30% cyclohexanone, 30% cyclohexanol, 30% water, 10% methanol, -6° C.; for Solubility, both actives in solvent: Methomyl: with oxamyl
# Method: Methomyl and Oxamyl Solubility In Cyclohexanone, Cyclohexanol, CH3 OH and H2 O at -6° C.
# Methomyl and oxamyl were dissolved separately and in weight ratios of 1:1, 2:1 and 1:2.5 methomyl to oxamyl in a solvent system consisting of 30 wt. % cyclohexanone, 30 wt. % cyclohexanol, 30 wt. % water and 10 wt. % methanol. These solutions were equilibrated at -6° C. and seeded with methomyl and/or oxamyl crystals. The samples of liquid and solids remained at -6° C. until solid-liquid equilibrium was assured. A liquid sample was removed from each at -6° C. and assayed for methomyl and/or oxamyl. Solids were also isolated at -6° C., washed, dried and dissolved in CH3 OH to yield a 10% solution which was analyzed by TLC to ensure both methomyl and oxamyl crystals were present in the solids of the combination sample. All such solids contained both oxamyl and methomyl.
# SOLUBILITY OF METHOMYL AND OXAMYL (2:1, 1:1 and 1:2.5 Wt.
# RATIOS) IN CYCLOHEXANONE, CYCLOHEXANOL, CH3 OH AND H2 O
# physchem [2] = experiment: physchem
# Method: Methomyl and oxamyl were added to various methanol:water solvent systems ranging from 100% CH3 OH to 40% CH3 OH:60% H2 O. The methomyl and oxamyl were dissolved separately or combined on a 1:1 weight ratio in the solvent systems at room temperature at a concentration exceeding the solubility limit at -6° C. Each sample was seeded with methomyl and/or oxamyl at -6° C. and allowed to crystallize until equilibrium was established. The supernatant liquid of each sample was assayed for methomyl and/or oxamyl by liquid chromatography.
# physchem [3] = conditions: -6° C.
# Method: Solubility of Methomyl and Oxamyl (2:1 wt. ratio) in CH3 OH/H2 O at -6° C.
# Methomyl and oxamyl were added to various methanol:water solvent systems ranging from 100 wt. % CH3 OH to 30 wt. % CH3 OH:70 wt. % H2 O. The methomyl and oxamyl were dissolved in a 2:1 weight ratio of 50 wt. % methomyl to 25 wt. % oxamyl in the solvent systems. The samples were equilibrated at -6° C. in a constant temperature freezer after which they were seeded with methomyl and oxamyl crystals to ensure crystallization of both materials. After crystal-liquid equilibrium was assured, liquid was removed at -6° C. and assayed for methomyl and oxamyl. Solids were also removed at -6° C., washed with hexane and dried. The solids were then dissolved in methanol to yield a 10 wt. % solution. This solution was evaluated by thin layer chromatography (TLC) to ensure the solids consisted of both methomyl and oxamyl.
# [4] = 60% cyclohexanone, 10% methanol, 30% water, -6° C.; for Solubility, both actives in solvent: Methomyl: with oxamyl
# Method: Methomyl and/or oxamyl were added to a solvent system consisting of 60% cyclohexanone, 10% methanol and 30% water at room temperature at a concentration higher than the solubility limit at -6° C. The methomyl and oxamyl were added together, at weight ratios of 2:1, 1:1 and 1:2.5. The solutions were cooled to -6° C. and seeded with methomyl and/or oxamyl to initiate crystallization. The solutions remained at -6° C. until equilibrium was assured. The supernatant liquid in each sample was analyzed for methomyl and oxamyl by liquid chromatography.
# [5] = 80:20 wt acetone/H2O, -6° C.; for Solubility, both actives in solvent: Methomyl: with oxamyl
# Method: Solubility of Methomyl and Oxamyl 80:20 Wt. Ratio Acetone:H2 O
# Methomyl and oxamyl were dissolved in a solvent system consisting of 80 wt. % acetone and 20 wt. % water separately and in 1:1, 2:1 and 1:2.5 wt. ratios of methomyl and oxamyl. These solutions were equilibrated at -6° C. and were seeded with methomyl and/or oxamyl. They remained at -6° C. until solid-liquid equilibrium was assured. Liquid was removed from each sample at -6° C. and assayed for methomyl and oxamyl. Solids were also removed at -6° C., washed, dried and dissolved in methanol to yield a 10 wt. % solution which was evaluated by TLC for oxamyl and methomyl.
compound,measurement,setting,value
CNC(=O)ON=C(C)SC [Methomyl],"Solubility, Methomyl alone in solvent",[1]; alone,24.5 gms/100 gms solvent
same,"Solubility, both actives in solvent: Methomyl",[1]; ratio 1:1,39.6 gms/100 gms solvent
same,"Solubility, both actives in solvent: Methomyl",[1]; ratio 1:2.5,40.2 gms/100 gms solvent
same,"Solubility, both actives in solvent: Methomyl",[1]; ratio 2:1,42.7 gms/100 gms solvent
same,solubility,"physchem [2]; 40/60 ch3oh/h2o, Methomyl alone in solvent, alone, -6° C.",62 mg/mL
same,solubility,"physchem [2]; 40/60 ch3oh/h2o, both actives in solvent: Methomyl, with oxamyl 1:1 wt., 40/60 CH3OH/H2O, -6° C.",188 mg/mL
same,solubility,"physchem [2]; 50/50 ch3oh/h2o, Methomyl alone in solvent, alone, -6° C.",105 mg/mL
same,solubility,"physchem [2]; 50/50 ch3oh/h2o, both actives in solvent: Methomyl, with oxamyl 1:1 wt., 50/50 CH3OH/H2O, -6° C.",237 mg/mL
same,solubility,"physchem [2]; 60/40 ch3oh/h2o, Methomyl alone in solvent, alone, -6° C.",155 mg/mL
same,solubility,"physchem [2]; 60/40 ch3oh/h2o, both actives in solvent: Methomyl, with oxamyl 1:1 wt., 60/40 CH3OH/H2O, -6° C.",355 mg/mL
same,solubility,"physchem [2]; 70/30 ch3oh/h2o, Methomyl alone in solvent, alone, -6° C.",208 mg/mL
same,solubility,"physchem [2]; 70/30 ch3oh/h2o, both actives in solvent: Methomyl, with oxamyl 1:1 wt., 70/30 CH3OH/H2O, -6° C.",438 mg/mL
same,solubility,"physchem [2]; 80/20 ch3oh/h2o, Methomyl alone in solvent, alone, -6° C.",263 mg/mL
same,solubility,"physchem [2]; 80/20 ch3oh/h2o, both actives in solvent: Methomyl, with oxamyl 1:1 wt., 80/20 CH3OH/H2O, -6° C.",581 mg/mL
same,solubility,"physchem [2]; 90/10 ch3oh/h2o, Methomyl alone in solvent, alone, -6° C.",299 mg/mL
same,solubility,"physchem [2]; 90/10 ch3oh/h2o, both actives in solvent: Methomyl, with oxamyl 1:1 wt., 90/10 CH3OH/H2O, -6° C.",664 mg/mL
same,"Solubility, Methomyl alone in solvent","physchem [2]; alone, 100/0 CH3OH/H2O, -6° C.",30.7 gms/100 gms
same,Solubility when dissolved together in the solvents taught,physchem [2]; summary of Examples 2-7,increases in solubility occur
same,"Solubility, both actives in solvent: Methomyl","physchem [2]; with oxamyl 1:1 wt., 100/0 CH3OH/H2O, -6° C.",63.9 gms/100 gms
same,solubility,"physchem [3]; 30/70 ch3oh/h2o, both actives in solvent: Methomyl, with oxamyl, 2:1 wt., 30/70 CH3OH/H2O",241 mg/mL
same,solubility,"physchem [3]; 40/60 ch3oh/h2o, Methomyl alone in solvent, alone",62 mg/mL
same,solubility,"physchem [3]; 40/60 ch3oh/h2o, both actives in solvent: Methomyl, with oxamyl, 2:1 wt., 40/60 CH3OH/H2O",422 mg/mL
same,solubility,"physchem [3]; 50/50 ch3oh/h2o, Methomyl alone in solvent, alone",105 mg/mL
same,solubility,"physchem [3]; 50/50 ch3oh/h2o, both actives in solvent: Methomyl, with oxamyl, 2:1 wt., 50/50 CH3OH/H2O",461 mg/mL
same,solubility,"physchem [3]; 60/40 ch3oh/h2o, Methomyl alone in solvent, alone",155 mg/mL
same,solubility,"physchem [3]; 60/40 ch3oh/h2o, both actives in solvent: Methomyl, with oxamyl, 2:1 wt., 60/40 CH3OH/H2O",552 mg/mL
same,solubility,"physchem [3]; 70/30 ch3oh/h2o, Methomyl alone in solvent, alone",208 mg/mL
same,solubility,"physchem [3]; 70/30 ch3oh/h2o, both actives in solvent: Methomyl, with oxamyl, 2:1 wt., 70/30 CH3OH/H2O",342 mg/mL
same,solubility,"physchem [3]; 80/20 ch3oh/h2o, Methomyl alone in solvent, alone",263 mg/mL
same,solubility,"physchem [3]; 80/20 ch3oh/h2o, both actives in solvent: Methomyl, with oxamyl, 2:1 wt., 80/20 CH3OH/H2O",598 mg/mL
same,solubility,"physchem [3]; 90/10 ch3oh/h2o, Methomyl alone in solvent, alone",299 mg/mL
same,solubility,"physchem [3]; 90/10 ch3oh/h2o, both actives in solvent: Methomyl, with oxamyl, 2:1 wt., 90/10 CH3OH/H2O",737 mg/mL
same,"Solubility, Methomyl alone in solvent","physchem [3]; alone, 100/0 CH3OH/H2O",30.7 gms/100 gms
same,Solubility change when dissolved in combination,"physchem [3]; methanol:water solvent systems, 2:1 wt. ratio dissolved initially",increased
same,"Solubility, both actives in solvent: Methomyl","physchem [3]; with oxamyl, 2:1 wt., 100/0 CH3OH/H2O",82.5 gms/100 gms
same,"Solubility, Methomyl alone in solvent",[4]; alone,29.5 gms/100 gms solvent
same,"Solubility, both actives in solvent: Methomyl",[4]; ratio 1:1,46.2 gms/100 gms solvent
same,"Solubility, both actives in solvent: Methomyl",[4]; ratio 1:2.5,66.6 gms/100 gms solvent
same,"Solubility, both actives in solvent: Methomyl",[4]; ratio 2:1,64.8 gms/100 gms solvent
same,"Solubility, Methomyl alone in solvent",[5]; alone,41.4 gms/100 gms solvent
same,"Solubility, both actives in solvent: Methomyl",[5]; ratio 1:1,67.0 gms/100 gms solvent
same,"Solubility, both actives in solvent: Methomyl",[5]; ratio 1:2.5,66.6 gms/100 gms solvent
same,"Solubility, both actives in solvent: Methomyl",[5]; ratio 2:1,64.8 gms/100 gms solvent
